One test concerns MDA-MB-453. Kind of test: Luminescent cell viability assay (ATP). In kind it is cell-based. The settings on record: Homo sapiens, 46 hours, luciferase signal normalized to untreated cells = 1, read-out: relative viability MDA-MB-453. How it is done:
(§1) Compounds were assessed for effects on viability of the breast cancer cell lines MDA-MB-231 and MDA-MB-453. The cells were incubated with the compounds for 46 hours at a concentration of 5 uM. DMSO was used as vehicle control. Cell viability was assessed after approximately 46 hours by using a luminescent cell viability assay. This assay generates a luminescent signal, proportional to the amount of ATP that is present as a readout of metabolically active cells. Relative viability was calculated by expressing the luciferase signal as a value normalized to untreated cells, meaning that the measured luciferase signal in untreated cells equals 1.

The subject of another test is MDA-MB-231. Kind of test: Luminescent cell viability assay (ATP). In kind it is cell-based. The settings on record: Homo sapiens, 46 hours, luciferase signal normalized to untreated cells = 1, read-out: Relative viability MDA-MB-231. How it is done:
as §1

This is an account of results in patent EP3811945A1, “COMPOUNDS FOR TREATING AND PREVENTING GROWTH HORMONE RECEPTOR-DEPENDENT CONDITIONS” (UMC Utrecht Holding B.V., priority 2019, dated 2021).

One may read the viability as a read-out of living cells in per cent, often relative to untreated cells. Regarding `CC(C)c1nc(N)nc(N)c1C=CC(C)(C)c1ccc(C(F)(F)F)cc1` [compound 19, 6-isopropyl-5-{3-methyl-3-[4-(trifluoromethyl)phenyl]-1-butenyl}-2,4-pyrimidinediamine], the viability at 5 µM in the test with MDA-MB-453 was found to be 80.6%; in the test on MDA-MB-231 it was 89.8%.

Consider `COc1cc(OC)cc(C(C)(C)C=Cc2c(C)nc(N)nc2N)c1` [compound 15, 5-[3-(3,5-dimethoxyphenyl)-3-methyl-1-butenyl]-6-methyl-2,4-pyrimidinediamine], for which the values for the viability at 5 µM in the test on MDA-MB-453 and with MDA-MB-231 were 66.7% and 91.8%, respectively.

For the compound `Cc1nc(N)nc(N)c1C=CC1(c2ccc(OC(F)(F)F)cc2)CC1` [compound 24, 6-methyl-5-[2-[1-[4-(trifluoromethoxy)phenyl]cyclopropyl]vinyl]pyrimidine-2,4-diamine], the viability at 5 µM in the test on MDA-MB-453 was 39.2%; with MDA-MB-231 it was 87.8%.

`Cc1nc(N)nc(N)c1C=CC1(c2cccc(C(F)(F)F)c2)CC1` [compound 26, 6-methyl-5-[2-[1-[3-(trifluoromethyl)phenyl]cyclopropyl]vinyl]pyrimidine-2,4-diamine]: the viability at 5 µM in the test with MDA-MB-453 amounted to 63.2%; in the test on MDA-MB-231 it was 103%.

As to `Cc1nc(N)nc(N)c1C=CC1(c2ccccc2C(F)(F)F)CC1` [compound 21, 6-methyl-5-[2-[1-[2-(trifluoromethyl)phenyl]cyclopropyl]vinyl]pyrimidine-2,4-diamine], the viability at 5 µM was found to be 52.9% with MDA-MB-453 and 87.9% in the test on MDA-MB-231.

As for `Cc1nc(N)nc(N)c1C=CC1(c2ccc(Cl)cc2)CC1` [compound 8, 5-[2-[1-(4-chlorophenyl)cyclopropyl]vinyl]-6-methylpyrimidine-2,4-diamine], the results for the viability at 5 µM with MDA-MB-453 and in the test on MDA-MB-231 were 49.5% and 91.2%, respectively.

In the case of `Cc1nc(N)nc(N)c1C#CC1(c2ccc(C(F)(F)F)cc2)CC1` [compound 23, 6-methyl-5-[2-[1-[4-(trifluoromethyl)phenyl]cyclopropyl]ethynyl]pyrimidine-2,4-diamine], the results for the viability at 5 µM in the test with MDA-MB-453 and in the test on MDA-MB-231 were 71.7% and 107%, respectively.

Consider `Cc1nc(N)nc(N)c1C=CC(C)c1cccc(Cl)c1` (centres unmarked) [compound 14, 2-amino-5-[3-(3-chlorophenyl)-1-butenyl]-6-methyl-4-pyrimidinylamine], for which the viability at 5 µM is 61.9% in the test with MDA-MB-453 and 90.5% in the test on MDA-MB-231.

Consider `Cc1nc(N)nc(N)c1C=CC(C)c1ccc(C(F)(F)F)cc1` (centres unmarked) [compound 7, 2-amino-6-methyl-5-{3-[4-(trifluoromethyl)phenyl]-1-butenyl}-4-pyrimidinylamine], for which the values for the viability at 5 µM in the test with MDA-MB-453 and in the test with MDA-MB-231 were 54% and 94.2%, respectively.

For the compound `Cc1nc(N)nc(N)c1C=CC(C)(C)c1ccc(C(F)(F)F)cc1` [compound 9, 2-amino-6-methyl-5-{3-methyl-3-[4-(trifluoromethyl)phenyl]-1-butenyl}-4-pyrimidinylamine], the viability at 5 µM is 38.9% in the test with MDA-MB-453 and 91.8% in the test on MDA-MB-231.

`Cc1nc(N)nc(N)c1C#CC1(c2ccc(OC(F)(F)F)cc2)CC1` [compound 29, 6-methyl-5-[2-[1-[4-(trifluoromethoxy)phenyl]cyclopropyl]ethynyl]pyrimidine-2,4-diamine]: the viability at 5 µM with MDA-MB-453 turned out to be 62.6%; with MDA-MB-231, 95.5%.

`Cc1nc(N)nc(N)c1C=CC(C)(C)c1ccc(S(C)(=O)=O)cc1` [compound 20, 2-amino-6-methyl-5-{3-methyl-3-[4-(methylsulfonyl)phenyl]-1-butenyl}-4-pyrimidinylamine]: the viability at 5 µM is 63.7% in the test on MDA-MB-453 and 64.2% in the test on MDA-MB-231.

Regarding `Cc1nc(N)nc(N)c1C=CC(C)(C)c1cc(Cl)cc(Cl)c1` [compound 18, 2-amino-5-[3-(3,5-dichlorophenyl)-3-methyl-1-butenyl]-6-methyl-4-pyrimidinylamine], the figures for the viability at 5 µM with MDA-MB-453 and in the test with MDA-MB-231 were 78.9% and 89.7%, respectively.
